Measurements published in PMC9291647, “Discovery of novel mRNA demethylase FTO inhibitors against esophageal cancer” (Journal of Enzyme Inhibition and Medicinal Chemistry, 2022).

Molecular target: fat mass and obesity-associated protein (FTO) (Homo sapiens, UniProt Q9C0B1)
Assay: FTO demethylase assay with ssRNA substrate, nucleosides detected by LC/MS
Format: biochemical

Sequence of fat mass and obesity-associated protein (FTO) (Q9C0B1 whole entry): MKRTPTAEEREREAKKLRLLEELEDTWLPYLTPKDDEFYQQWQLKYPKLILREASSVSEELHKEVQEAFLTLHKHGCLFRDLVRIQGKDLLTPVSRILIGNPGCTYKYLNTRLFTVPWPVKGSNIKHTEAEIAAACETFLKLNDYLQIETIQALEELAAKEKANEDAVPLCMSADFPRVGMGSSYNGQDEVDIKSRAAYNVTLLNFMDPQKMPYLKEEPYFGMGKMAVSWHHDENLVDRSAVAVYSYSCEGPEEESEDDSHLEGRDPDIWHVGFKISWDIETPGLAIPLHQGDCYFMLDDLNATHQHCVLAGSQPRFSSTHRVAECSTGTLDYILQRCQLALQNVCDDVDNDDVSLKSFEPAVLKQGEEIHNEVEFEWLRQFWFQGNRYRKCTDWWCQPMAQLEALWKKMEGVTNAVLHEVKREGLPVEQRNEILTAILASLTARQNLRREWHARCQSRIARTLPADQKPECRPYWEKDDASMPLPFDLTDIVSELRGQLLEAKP

IC50	SMILES
0.78 µM	COc1c(C)cnc(Cn2cc(CNC(=O)c3c(F)c(F)c(F)c(F)c3F)nn2)c1C [C6, 2,3,4,5,6-Pentafluoro-N-((1-((4-methoxy-3,5-dimethylpyridin-2-yl)methyl)-1H-1,2,3-triazol-4-yl)methyl)benzamide]
8.67 µM	O=C(NCc1cn(Cc2nc3ccccc3[nH]2)nn1)c1c(F)c(F)c(F)c(F)c1F [C8, N-((1-((1H-benzo[d]imidazol-2-yl)methyl)-1H-1,2,3-triazol-4-yl)methyl)-2,3,4,5,6-pentafluorobenzamide]
